Source: patent US10214512B2, “Factor XIA inhibitors” (MERCK SHARP & DOHME CORP., priority 2015, dated 2019)

These compounds were tested against purified human Factor XIa (Homo sapiens (Human), UniProt P03951) (assay: Factor XIa Assay). Details: purified human Factor XIa 40 pM; substrate Z-Gly-Pro-Arg-AFC 100 μM; 50 mM HEPES pH 7.4; read-out: Human FXIa Ki.
Assay type: biochemical
Protocol: The effectiveness of a compound of the present invention as an inhibitor of Coagulation Factor XIa can be determined using a relevant purified serine protease, and an appropriate synthetic substrate. The rate of hydrolysis of the chromogenic or fluorogenic substrate by the relevant serine protease was measured both in the absence and presence of compounds of the present invention. Assays were conducted at rt or at 37° C. […] A decrease in the rate of fluorescence change in the presence of inhibitor is indicative of enzyme inhibition. Such methods are known to one skilled in the art. The results of this assay are expressed as the inhibitory constant, Ki.
Factor XIa determinations were made in 50 mM HEPES buffer at pH 7.4 containing 150 mM NaCl, 5 mM CaCl2, and 0.1% PEG 8000 (polyethylene glycol; JT Baker or Fisher Scientific). Determinations were made using purified human Factor XIa at a final concentration of 40 pM (Sekisui Diagnostics) and he synthetic substrate, Z-Gly-Pro-Arg-AFC, TFA salt (Sigma #C0980) at a concentration of 100 μM.
Times required to achieve equilibration between enzyme and inhibitor were determined in control experiments. Initial velocities of product formation in the absence (Vo) or presence of inhibitor (Vi) were measured. Assuming competitive inhibition, and that unity is negligible compared Km/[S], [I]/e, and [I]/e (where [S], [I], and e respectively represent the total concentrations, of substrate, inhibitor and enzyme), the equilibrium constant (Ki) for dissociation of the inhibitor from the enzyme can be obtained from the dependence of Vo/Vi on [I] shown in the following equation.

purified human Factor XIa, sequence (P03951 388-625): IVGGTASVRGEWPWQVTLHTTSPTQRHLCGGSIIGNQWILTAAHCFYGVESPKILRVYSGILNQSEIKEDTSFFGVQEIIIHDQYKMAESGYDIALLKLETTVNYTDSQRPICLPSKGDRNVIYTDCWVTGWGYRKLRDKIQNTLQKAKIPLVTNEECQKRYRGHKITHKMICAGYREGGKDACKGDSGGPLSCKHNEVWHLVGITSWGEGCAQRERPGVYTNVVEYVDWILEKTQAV
purified human Factor XIa, sequence (P03951 19-387 partner): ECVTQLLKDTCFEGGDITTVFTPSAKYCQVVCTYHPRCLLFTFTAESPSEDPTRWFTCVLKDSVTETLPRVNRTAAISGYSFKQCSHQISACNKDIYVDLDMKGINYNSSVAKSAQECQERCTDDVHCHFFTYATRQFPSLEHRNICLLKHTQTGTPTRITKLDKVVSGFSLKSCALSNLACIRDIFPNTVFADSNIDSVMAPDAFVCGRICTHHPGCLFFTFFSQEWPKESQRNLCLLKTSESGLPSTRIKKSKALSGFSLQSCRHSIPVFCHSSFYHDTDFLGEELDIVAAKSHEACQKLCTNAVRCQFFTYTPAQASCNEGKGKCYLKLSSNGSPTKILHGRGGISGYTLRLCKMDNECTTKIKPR

Ki	Compound
11 nM	O=C1CCCCC(c2ccc(-c3c(-n4cc(C(=O)O)nn4)ccc(Cl)c3F)cn2)c2cc(ncc2F)-c2cc(F)ccc2N1 (single isomer, unassigned) [Example 91-a]
2.54 nM	O=C1CCCCC(c2ccc(-c3c(F)ccc(Cl)c3F)c[n+]2[O-])c2nc(c[nH]2)-c2cc(C(=O)O)ccc2N1 (single isomer, unassigned) [Example 106-a, (Z)-2-(2^5-carboxy-4-oxo-1^1H-3-aza-1(4,2)-imidazola-2(1,2) -benzenacyclononaphane-9-yl)-5-(3-chloro-2,6-difluorophenyl)pyridine 1-oxide]
46 nM	O=C1CCCCC(O)(c2ccc(-c3cc(Cl)ccc3-n3cnnn3)c[n+]2[O-])c2nc(c[nH]2)-c2cc(F)ccc2N1 (single isomer, unassigned) [Example 107-a, (Z)-5-(5-Chloro-2-(1H-tetrazol-1-yl)phenyl)-2-(2^5-fluoro-9-hydroxy-4-oxo-1^1H-3-aza-1(4,2)-imidazola-2(1,2)-benzenacyclononaphane-9-yl)pyridine 1-oxide]
0.17 nM	CCOC(=O)Nc1ccc2c(c1)NC(=O)CCCC[C@H](c1ccc(-c3c(F)ccc(Cl)c3F)c[n+]1[O-])c1nc-2c(C)[nH]1 (single isomer, unassigned) [Example 134]
198 nM	COC(=O)Nc1ccc2c(c1)NC(=O)CCCC[C@H](c1ccc(-c3c(-n4cc(C(F)(F)F)cn4)ccc(Cl)c3F)c[n+]1[O-])c1nc-2c(C)[nH]1 (single isomer, unassigned) [Example 135]
168 nM	CCc1[nH]c2nc1-c1ccc(NC(=O)OC)cc1NC(=O)CCCC[C@@H]2c1ccc(-c2c(-n3cc(C(F)(F)F)cn3)ccc(Cl)c2F)c[n+]1[O-] (single isomer, unassigned) [Example 136]
40 nM	COC(=O)Nc1ccc2c(c1)NC(=O)CCCC[C@H](c1ccc(-c3ccccc3-n3cc(C)cn3)c[n+]1[O-])c1nc-2c(C)[nH]1 (single isomer, unassigned) [Example 140]
18.6 nM	COC(=O)Nc1ccc2c(c1)NC(=O)[C@H](C)CCC[C@@H](c1ccc(-c3c(F)cccc3F)c[n+]1[O-])c1nc-2c(C)[nH]1 (single isomer, unassigned) [Example 143-d]
0.4 nM	COC(=O)Nc1ccc2c(c1)NC(=O)C[C@H]1C[C@@H]1C[C@H](c1ccc(-c3c(F)ccc(Cl)c3F)c[n+]1[O-])c1nc-2c(C)[nH]1 (single isomer, unassigned) [Example 154]
11.4 nM	COC(=O)Nc1ccc2c(c1)NC(=O)C[C@H]1C[C@@H]1C[C@H](c1ccc(-c3c(F)cccc3F)c[n+]1[O-])c1nc-2c(C)[nH]1 (single isomer, unassigned) [Example 155]
195 nM	C[C@@H]1CCC[C@@H](c2ccc(-c3cc(Cl)ccc3-n3cc(Cl)nn3)c[n+]2[O-])c2cccc(c2)-c2c(cnn2C(F)F)NC1=O (single isomer, unassigned) [Example 166-b]
9.4 nM	C[C@H]1CCC[C@H](c2ccc(-c3cc(Cl)ccc3-n3cc(Cl)nn3)c[n+]2[O-])c2cccc(c2)-c2c(cnn2C(F)F)NC1=O (single isomer, unassigned) [Example 166-c]
> 875 nM	C[C@H]1CCC[C@@H](c2ccc(-c3cc(Cl)ccc3-n3cc(Cl)nn3)c[n+]2[O-])c2cccc(c2)-c2c(cnn2C(F)F)NC1=O (single isomer, unassigned) [Example 166-d]
> 875 nM	O=C1CCCC[C@H](c2ccc(-c3c(F)ccc(Cl)c3F)c[n+]2[O-])c2cccc(c2)-c2c(cnn2C(F)F)N1 (single isomer, unassigned) [Example 171]
11.9 nM	C[C@H]1CCC[C@H](c2ccc(-c3ccccc3-n3cc(Cl)nn3)c[n+]2[O-])c2cccc(c2)-c2c(cnn2C(F)F)NC1=O (single isomer, unassigned) [Example 172-b]
504 nM	O=C1CCCC[C@@H](c2ccc(-c3cc(Cl)ccc3-n3cnnn3)cn2)c2cccc(c2)-c2cc(F)ccc2N1 [Example 1-b, (R)-9-(5-(5-Chloro-2-(1H-tetrazol-1-yl)phenyl)pyridin-2-yl)-2^5-fluoro-3-aza-1(1,3),2(1,2)-dibenzenacyclononaphan-4-one]
83.1 nM	O=C1CCCC[C@@H](c2ccc(-c3cc(Cl)ccc3-n3cnnn3)c[n+]2[O-])c2cccc(c2)-c2cc(F)ccc2N1 [Example 2-b, (R) 5-(5-chloro-2-(1H-tetrazol-1-yl)phenyl)-2-(2^5-fluoro-4-oxo-3-aza-1(1,3),2(1,2)-dibenzenacyclononaphane-9-yl)pyridine 1-oxide]
593 nM	COC(=O)Nc1ccc2c(c1)NC(=O)CCCCC(c1ccc(-c3c(F)ccc(Cl)c3F)cn1)c1cccc-2c1 (stereo not shown) [Example 12, methyl (9-(5-(3-chloro-2,6-difluorophenyl)pyridin-2-yl)-4-oxo-3-aza-1(1,3),2(1,2)-dibenzenacyclononaphane-2^4-yl)carbamate]
0.24 nM	O=C1CCCC[C@H](c2ccc(-c3c(F)ccc(Cl)c3F)c[n+]2[O-])c2cccc(c2)-c2ccc(NC(=O)OCCO)cc2N1 [Example 46, (S)-5-(3-chloro-2,6-difluorophenyl)-2-(2^4-(((2-hydroxyethoxy)carbonyl)amino)-4-oxo-3-aza-1(1,3),2(1,2) -dinenzenacyclononaphane-9-yl)pyridine 1-oxide]
15.6 nM	O=C1CCCCC(c2ccc(-c3c(F)ccc(Cl)c3F)cn2)c2cccc(c2)-c2cc3c(O)cc(=O)[nH]c3cc2N1 (stereo not shown) [Example 49, 3-(5-(3-chloro-2,6-difluorophenyl)pyridin-2-yl)-1^4-hydroxy-1^1,1^2-dihydro-9-aza-1 (6,7)-quinolina-2(1,3)-benzenacyclononaphane-1^2,8-dione]
> 875 nM	COC(=O)Nc1ccc2c(c1)NC(=O)CCCCC(c1ccc(-c3c(F)ccc(Cl)c3F)cn1)c1cc(F)cc-2c1 (stereo not shown) [Example 53, methyl (9-(5-(3-chloro-2,6-difluorophenyl)pyridin-2-yl)-1^5-fluoro-4-oxo-3-aza-1(1,3),2(1,2)-dibenzenacyclononaphane-2^4-yl)carbamate]
839 nM	COC(=O)Nc1ccc2c(c1)NC(=O)CCCCC(c1ccc(-c3c(F)ccc(Cl)c3F)cn1)c1ccc(F)c-2c1 (stereo not shown) [Example 54, methyl (9-(5-(3-chloro-2,6-difluorophenyl)pyridin-2-yl)-1^6-fluoro-4-oxo-3-aza-1(1,3),2(1,2)-dibenzenacyclononaphane-2^4-yl)carbamate]
> 875 nM	COC(=O)Nc1ccc2c(c1)NC(=O)CCCCC(c1ccc(-c3c(F)ccc(Cl)c3F)cn1)c1cc(F)c(F)c-2c1 (stereo not shown) [Example 55, methyl (9-(5-(3-chloro-2,6-difluorophenyl)pyridin-2-yl)-1^5,1^6-difluoro-4-oxo-3-aza-1(1,3),2(1,2)-dibenzenacyclononaphane-2^4-yl)carbamate]
167 nM	COC(=O)Nc1ccc2c(c1)NC(=O)CCCCC(c1ccc(-c3c(F)ccc(Cl)c3F)cn1)c1cc-2ncc1F (stereo not shown) [Example 58, methyl (9-(5-(3-chloro-2,6-difluorophenyl)pyridin-2-yl)-1^5-fluoro-4-oxo-3-aza-1(2,4)-pyridina-2(1,2)-benzenacyclononaphane-2^4-yl)carbamate]
8.9 nM	O=C1CCCCC(c2ccc(-c3c(-n4cnnn4)ccc(Cl)c3F)cn2)c2cc(ncc2F)-c2cc(F)ccc2N1 (stereo not shown) [Example 59, 9-(5-(3-chloro-2-fluoro-6-(1h-tetrazol-1-yl)phenyl)pyridin-2-yl)-1^5,2^5-difluoro-3-aza-1(2,4)-pyridina-2(1,2)-benzenacyclononaphan-4-one]
